The source of these data is patent US4122179A, “Acid addition salts of vincamine and apovincamine” (priority 1976, dated 1978).

Where a name gives a salt, the structure may show the parent alone.

Tested on in the first data set: not listed separately
Kind of data set: Solubility. It is filed as physicochemical. The conditions noted are these: alcohol (ethyl alcohol); qualitative.
Consider `CC[C@]12CCCN3CCc4c(n(c5ccccc45)[C@@](O)(C(=O)OC)C1)[C@@H]32` [Example 12.a, Vincamine furoate (furan-2-carboxylate)], for which the solubility in alcohol result is “insoluble”.
On the same count and under the same terms, in the case of `CC[C@]12CCCN3CCc4c(n(c5ccccc45)[C@@](O)(C(=O)OC)C1)[C@@H]32` [Example 9.a, Vincamine clofibrate (2-(p-chlorophenoxy)-2-methylpropionate)] it was “soluble”; in that of `CC[C@]12CCCN3CCc4c(n(c5ccccc45)[C@@](O)(C(=O)OC)C1)[C@@H]32` [Example 14.a, Vincamine L(+)-O,O-dibenzoyltartrate], “poorly soluble”.

Staying with this data set, now noted: common organic solvents; qualitative.
As for `CC[C@]12CCCN3CCc4c(n(c5ccccc45)[C@@](O)(C(=O)OC)C1)[C@@H]32` [Example 29.a, Vincamine dihydroxyphenylalanine (DOPA)], the “solubility in the common (organic) solvents” value is “practically insoluble”.
Still for that read-out and setting: the same measure for “Vincamine-pectin (2:1 adduct) [Example 31.a]”: “practically insoluble”.
The same measure, in the same setting: the same measure for `CC[C@]12CCCN3CCc4c(n(c5ccccc45)[C@@](O)(C(=O)OC)C1)[C@@H]32` [Example 18.a, Vincamine enanthate]: “insoluble”; for “Vincamine pectin (1:1 adduct) [Example 30.a]”: “insoluble”; for Vincamine alginate [Example 23.a]: “insoluble”.
Take `CC[C@]12CCCN3CCc4c(n(c5ccccc45)[C@@](O)(C(=O)OC)C1)[C@@H]32` [Example 14.a, Vincamine L(+)-O,O-dibenzoyltartrate]: the “solubility in the common (organic) solvents” value was “insoluble”.

Still in this data set, the particulars now being: water; qualitative.
Regarding `CC[C@]12CCCN3CCc4c(n(c5ccccc45)[C@@](O)(C(=O)OC)C1)[C@@H]32` [Example 29.a, Vincamine dihydroxyphenylalanine (DOPA)], the solubility in water entry is given as “practically insoluble”.
For “Vincamine-pectin (2:1 adduct) [Example 31.a]”, the solubility in water result is recorded as “practically insoluble”.
As to “Vincamine pectin (1:1 adduct) [Example 30.a]”, the solubility in water result is recorded as “insoluble”.
As to Vincamine alginate [Example 23.a], the solubility in water entry was “insoluble”.
Same read-out and setting: in the case of `CC[C@]12CCCN3CCc4c(n(c5ccccc45)[C@@](O)(C(=O)OC)C1)[C@@H]32` [Example 12.a, Vincamine furoate (furan-2-carboxylate)] it was “insoluble”.
The same measure, in the same setting: the same measure for `CC[C@]12CCCN3CCc4c(n(c5ccccc45)[C@@](O)(C(=O)OC)C1)[C@@H]32` [Example 9.a, Vincamine clofibrate (2-(p-chlorophenoxy)-2-methylpropionate)]: “insoluble”; for `CC[C@]12CCCN3CCc4c(n(c5ccccc45)[C@@](O)(C(=O)OC)C1)[C@@H]32` [Example 14.a, Vincamine L(+)-O,O-dibenzoyltartrate]: “poorly soluble”.
Same read-out and setting: the same measure for `CC[C@@]12C=C(C(=O)OC)n3c4c(c5ccccc53)CCN(CCC1)[C@H]42` [Example 4.b, Apovincamine glucose-1-phosphate, acid salt]: “soluble”.

For another data set, the system named is vertebral arteria. Kind of data set: Cerebral vasodilating activity: hematic flow at the vertebral arteria after i.v. administration. The class given is in vivo. The conditions noted are these: i.v. (femoral vein), 5 mg/kg of vincamine/apovincamine, anesthetized dog, 4 animals per compound. On the procedure:
(§1) For the compounds of the present invention a number of pharmacological and pharmacokinetic tests have been carried out. […] As regards the pharmacological and pharmacodynamic activity, it has been studied on the percent variations of the hematic flow, as recorded at the vertebral arteria in the dog after administration of the tested compounds. As regards the pharmacokinetic tests, the compounds were administered per oral route to the Wistar rat, and the hematic levels at different times from the administration were measured.
The cerebral vasodilating activity was studied in the anestetized dog, by measuring, by means of Statham periarterial electromagnetic flowmeters, the hematic flow at the level of the […] which, in such animal species, constitutes the greatest blood supply to the brain.
The resuls are reported in the TABLE 2 (last column) as the percent variations of the flow measured at the level of the ledt vertebral arteria after the i.v. administration of the several compounds to be tested to groups of 4 animals for each compound. The results also confirm that the compounds of the invention are all endowed with a vasodilating activity at the level of the cerebral circulus, such an action being, for some compounds, much more remarkable than that of vincamine and apovincamine.
Consider “Vincamine-pectin (2:1 adduct) [Example 31.a]”, for which the “% increase (percent variation of hematic flow, left vertebral arteria)” value amounted to 24.9%.
Turning to “Vincamine pectin (1:1 adduct) [Example 30.a]”, the “% increase (percent variation of hematic flow, left vertebral arteria)” value was 40.0%.
Still for that read-out and setting: the same measure for Vincamine alginate [Example 23.a]: 34.7%.

The same data set, now with this note: i.v. (femoral vein), 5 mg/kg of vincamine/apovincamine, anesthetized dog, 4 animals per compound; 5 mg/kg.
With `CC[C@]12CCCN3CCc4c(n(c5ccccc45)[C@@](O)(C(=O)OC)C1)[C@@H]32` [Example 29.a, Vincamine dihydroxyphenylalanine (DOPA)], the “% increase (percent variation of hematic flow, left vertebral arteria)” value was 38.2%.
On to `CC[C@]12CCCN3CCc4c(n(c5ccccc45)[C@@](O)(C(=O)OC)C1)[C@@H]32` [Example 18.a, Vincamine enanthate], for which the “% increase (percent variation of hematic flow, left vertebral arteria)” value is on record as 27.7%.
Regarding `CC[C@]12CCCN3CCc4c(n(c5ccccc45)[C@@](O)(C(=O)OC)C1)[C@@H]32` [Example 12.a, Vincamine furoate (furan-2-carboxylate)], the “% increase (percent variation of hematic flow, left vertebral arteria)” value amounted to 24.8%.
Turning to `CC[C@]12CCCN3CCc4c(n(c5ccccc45)[C@@](O)(C(=O)OC)C1)[C@@H]32` [Example 9.a, Vincamine clofibrate (2-(p-chlorophenoxy)-2-methylpropionate)], the “% increase (percent variation of hematic flow, left vertebral arteria)” value is given as 22.1%.
The same measure, in the same setting: the same measure for `CC[C@]12CCCN3CCc4c(n(c5ccccc45)[C@@](O)(C(=O)OC)C1)[C@@H]32` [Example 14.a, Vincamine L(+)-O,O-dibenzoyltartrate]: 29.6%.
Consider `CC[C@@]12C=C(C(=O)OC)n3c4c(c5ccccc53)CCN(CCC1)[C@H]42` [Example 4.b, Apovincamine glucose-1-phosphate, acid salt], for which the “% increase (percent variation of hematic flow, left vertebral arteria)” value came out at 26.1%.

Tested on in a further data set: not listed separately
Kind of data set: Hematic levels at different times after oral administration (absorption). The class given is in vivo, Wistar rat. The conditions noted are these: 100 mg/kg expressed as vincamine/apovincamine, 5% carboxymethyl cellulose suspension. On the procedure:
as §1
For the evaluation of the absorption, all the compounds have been orally administered at the dosage of 100 mg/kg, expressed as vincamine and apovincamine, in form of a suspension in a 5% carboxymethyl cellulose solution.
The absorption was determined by evaulating the hematic levels at the following times (minutes) : 0, 30, 120, 240, 480, 10 hours and 12 hours, in order also to assess the time from the administration (max conc.time) the maximum absorption occurred.
The vincamine and apovincamine concentrations were assessed by chromatographic method.
For the evaluation of the prolonged action of the salts and of the adducts of vincamine and apovincamine the following criterium was adopted; as derivatives having a long-acting effect, there are considered those which, 120 minutes after the administration, show hematic levels higher than those obtained with vincamine and apovincamine.
On to “Vincamine-pectin (2:1 adduct) [Example 31.a]”, for which the Max. conc. time stood at 240 min.
On the same count and under the same terms, the same measure for “Vincamine pectin (1:1 adduct) [Example 30.a]”: 20 min; for Vincamine alginate [Example 23.a]: 20 min.

Still in this data set, the particulars now being: 100 mg/kg expressed as vincamine/apovincamine, 5% carboxymethyl cellulose suspension, 100 mg/kg.
Molecule `CC[C@]12CCCN3CCc4c(n(c5ccccc45)[C@@](O)(C(=O)OC)C1)[C@@H]32` [Example 29.a, Vincamine dihydroxyphenylalanine (DOPA)] gave a Max. conc. time of 20 min.
`CC[C@]12CCCN3CCc4c(n(c5ccccc45)[C@@](O)(C(=O)OC)C1)[C@@H]32` [Example 18.a, Vincamine enanthate]: the Max. conc. time was 60 min.
In turn, `CC[C@]12CCCN3CCc4c(n(c5ccccc45)[C@@](O)(C(=O)OC)C1)[C@@H]32` [Example 12.a, Vincamine furoate (furan-2-carboxylate)] had a Max. conc. time of 120 min.
On to `CC[C@]12CCCN3CCc4c(n(c5ccccc45)[C@@](O)(C(=O)OC)C1)[C@@H]32` [Example 9.a, Vincamine clofibrate (2-(p-chlorophenoxy)-2-methylpropionate)], for which the Max. conc. time worked out at 480 min.
`CC[C@]12CCCN3CCc4c(n(c5ccccc45)[C@@](O)(C(=O)OC)C1)[C@@H]32` [Example 14.a, Vincamine L(+)-O,O-dibenzoyltartrate]: the Max. conc. time was 60 min.
The molecule `CC[C@@]12C=C(C(=O)OC)n3c4c(c5ccccc53)CCN(CCC1)[C@H]42` [Example 4.b, Apovincamine glucose-1-phosphate, acid salt] came in with a Max. conc. time of 240 min.

Tested on in the next data set: not listed separately
Kind of data set: LD50 / acute toxicity, intraperitoneal route. The conditions noted are these: i.p. It is filed as in vivo.
`CC[C@]12CCCN3CCc4c(n(c5ccccc45)[C@@](O)(C(=O)OC)C1)[C@@H]32` [Example 29.a, Vincamine dihydroxyphenylalanine (DOPA)] registered a median lethal dose (LD50) of 1500 mg/kg.
Still for that read-out and setting: in the case of “Vincamine-pectin (2:1 adduct) [Example 31.a]” it was 2000 mg/kg.
Regarding `CC[C@]12CCCN3CCc4c(n(c5ccccc45)[C@@](O)(C(=O)OC)C1)[C@@H]32` [Example 18.a, Vincamine enanthate], the LD50 is recorded as 750 mg/kg.
“Vincamine pectin (1:1 adduct) [Example 30.a]” returned a 50% lethal dose (LD50) of 2000 mg/kg.
Take Vincamine alginate [Example 23.a]: the LD50 is recorded as 550 mg/kg.
On the same count and under the same terms, the same measure for `CC[C@]12CCCN3CCc4c(n(c5ccccc45)[C@@](O)(C(=O)OC)C1)[C@@H]32` [Example 12.a, Vincamine furoate (furan-2-carboxylate)]: 800 mg/kg; for `CC[C@]12CCCN3CCc4c(n(c5ccccc45)[C@@](O)(C(=O)OC)C1)[C@@H]32` [Example 9.a, Vincamine clofibrate (2-(p-chlorophenoxy)-2-methylpropionate)]: 900 mg/kg; for `CC[C@]12CCCN3CCc4c(n(c5ccccc45)[C@@](O)(C(=O)OC)C1)[C@@H]32` [Example 14.a, Vincamine L(+)-O,O-dibenzoyltartrate]: 950 mg/kg.
`CC[C@@]12C=C(C(=O)OC)n3c4c(c5ccccc53)CCN(CCC1)[C@H]42` [Example 4.b, Apovincamine glucose-1-phosphate, acid salt] displayed a 50% lethal dose (LD50) of 600 mg/kg.

Still in this data set, the particulars now being: i.p.; Gleason class in words, classes not defined.
As to `CC[C@]12CCCN3CCc4c(n(c5ccccc45)[C@@](O)(C(=O)OC)C1)[C@@H]32` [Example 29.a, Vincamine dihydroxyphenylalanine (DOPA)], the “Toxicity (Gleason)” value is listed as “light”.
Regarding “Vincamine-pectin (2:1 adduct) [Example 31.a]”, the “Toxicity (Gleason)” value was “negligible”.
`CC[C@]12CCCN3CCc4c(n(c5ccccc45)[C@@](O)(C(=O)OC)C1)[C@@H]32` [Example 18.a, Vincamine enanthate]: the “Toxicity (Gleason)” value was “modest”.
Consider “Vincamine pectin (1:1 adduct) [Example 30.a]”, for which the “Toxicity (Gleason)” value was “negligible”.
With Vincamine alginate [Example 23.a], the “Toxicity (Gleason)” value is given as “modest”.
On to `CC[C@]12CCCN3CCc4c(n(c5ccccc45)[C@@](O)(C(=O)OC)C1)[C@@H]32` [Example 12.a, Vincamine furoate (furan-2-carboxylate)], for which the “Toxicity (Gleason)” value is reported as “modest”.
Turning to `CC[C@]12CCCN3CCc4c(n(c5ccccc45)[C@@](O)(C(=O)OC)C1)[C@@H]32` [Example 9.a, Vincamine clofibrate (2-(p-chlorophenoxy)-2-methylpropionate)], the “Toxicity (Gleason)” value is listed as “modest”.
The same measure, in the same setting: the same measure for `CC[C@]12CCCN3CCc4c(n(c5ccccc45)[C@@](O)(C(=O)OC)C1)[C@@H]32` [Example 14.a, Vincamine L(+)-O,O-dibenzoyltartrate]: “modest”; for `CC[C@@]12C=C(C(=O)OC)n3c4c(c5ccccc53)CCN(CCC1)[C@H]42` [Example 4.b, Apovincamine glucose-1-phosphate, acid salt]: “modest”.

Broadly, the LD50 is the dose expected to kill half of the subjects tested.
